Measurements published in patent publication US6369050B1, “Antibacterial agents” (Fujisawa Pharmaceutical Co., Ltd., priority 1998, dated 2002).
Like-named read-outs stand apart in the source and are kept apart here. Marks after values point to notes of the source that are not given here.

Tests used:
[1] = test system: penicillin G-resistant S. pneumoniae; test: Checkerboard method MIC, penicillin G-resistant S. pneumoniae (Test Example 1); assay type: cell-based; settings: for MIC: Streptococcus pneumoniae, antibiotic used alone, read-out: MIC, single use; for MIC, combined use: CFIX and AMPC used combinedly
Protocol: (§1) Checkerboard method (cf. Hideyo Yamaguchi: “Konnichi no Koseibusshitsu (Antibiotics of today)”, page 411, published by Nanzando)
(§2) The MIC of each antibiotic used singly and the MIC of each combination of antibiotics were determined by the standard method established by the Japan Society of Chemotherapy, using Mueller-Hinton agar medium (MHA, product of Difco) for M. catarrhalis and K. pneumoniae, 5% equine blood agar (MHA+5% equine blood) for S. pneumoniae, and MHA+5% equine blood (chocolate agar) for H. influenzae. A 100-fold dilution of an overnight culture of each bacterial strain was stamp-inoculated and, after 18 hours of incubation at 37° C. (in the case of S. pneumoniae and H. influenzae, in an atmosphere containing 5% carbon dioxide), the MIC was measured (in μg/ml)
(§3) The MIC's of two individual antibiotics and the MIC's of the two respective antibiotics used combinedly were determined by the checkerboard method and the fractional inhibitory concentration index (hereinafter, “FIC index”) was determined according to the equation shown below. [formula]
(§4) ao: MIC of antibiotic A used alone; b: MIC of antibiotic B used alone; a, b: MIC's of antibiotics A and B, respectively, when they are used combinedly.

K. pneumoniae = test: Checkerboard method MIC, K. pneumoniae (Test Example 1); assay type: cell-based; settings: for MIC: Klebsiella pneumoniae, antibiotic used alone, read-out: MIC, single use; for MIC, combined use: CFIX and AMPC used combinedly
Protocol: as §1, §2, §3, §4

S. pneumoniae FP1906 = test: Mixed respiratory infection in mice, viable S. pneumoniae in the lung (Test Example 4); assay type: in vivo; settings: oral, 2 days after infection
Protocol: (§5) ICR strain male mice (4 weeks old, 5 animals per group) given cyclophosphamide (200 mg/kg, ip) 4 days prior to infection were nasally infected with S. pneumoniae FP1906 (2.0×10^7 cfu/mouse) and K. pneumoniae 15004 (5.5×10^3 cfu/mouse). Each drug was orally administered three times (3, 18 and 26 hours after infection) and, at 2 days after infection, viable cells in the lung were counted.

K. pneumoniae 15004 = test: Mixed respiratory infection in mice, viable K. pneumoniae in the lung (Test Example 4); assay type: in vivo; settings: oral, 2 days after infection
Protocol: as §5

Row | Compound | MIC ([1]; strain FP1884) | MIC ([1]; strain FP1885) | MIC ([1]; strain FP1891) | MIC ([1]; strain FP1906) | MIC, combined use ([1]; strain FP1884) | MIC, combined use ([1]; strain FP1885) | MIC, combined use ([1]; strain FP1891) | MIC, combined use ([1]; strain FP1906) | MIC (K. pneumoniae; strain 15004) | MIC (K. pneumoniae; strain 15021) | MIC, combined use (K. pneumoniae; strain 15004) | Viable cells in the lung (logarithm), S. pneumoniae (S. pneumoniae FP1906; 10 mg/kg three times) | Viable cells in the lung (logarithm), S. pneumoniae (S. pneumoniae FP1906; 50 mg/kg three times) | Viable cells in the lung (logarithm), K. pneumoniae (K. pneumoniae 15004; 10 mg/kg three times) | Viable cells in the lung (logarithm), K. pneumoniae (K. pneumoniae 15004; 50 mg/kg three times) | MIC, combined use (K. pneumoniae; strain 15021)
1 | CC1(C)S[C@@H]2[C@H](NC(=O)[C@H](N)c3ccc(O)cc3)C(=O)N2[C@H]1C(=O)O [AMPC, amoxicillin] | 0.2 µg/mL | 0.78 µg/mL | 0.39 µg/mL | 0.76 µg/mL | 0.05 µg/mL | 0.39 µg/mL | 0.025 µg/mL | 0.2 µg/mL | 100 µg/mL | 25 µg/mL | 50 µg/mL | 7.04 logarithm | 5.29^* logarithm | 9.32^*# logarithm | 9.38^*# logarithm | 
2 | C=CC1=C(C(=O)O)N2C(=O)[C@@H](NC(=O)/C(=N\OCC(=O)O)c3csc(N)n3)[C@H]2SC1 [CFIX, Cefixime] | 12.5 µg/mL | 6.25 µg/mL | 3.13 µg/mL | 12.5 µg/mL | 0.78 µg/mL | 0.1 µg/mL | 0.78 µg/mL | 1.56 µg/mL | 0.05 µg/mL | 0.025 µg/mL | ≦0.00313 μg/ml | 8.46^*# logarithm | 8.26^*# logarithm | 4.14 logarithm | 2.34 logarithm | 0.0125 µg/mL
